Experiments:
Format in all cases: functional
Pythium [1] = experiment: Growth inhibition of Pythium sp. at 1000 ppm by agar dilution method; conditions: read-out: GI
Athelia rolfsii [2] = experiment: Growth inhibition of Athelia rolfsii at 100 ppm by agar dilution method; conditions: Agroathelia rolfsii; read-out: GI
Athelia rolfsii [3] = experiment: Growth inhibition of Athelia rolfsii at 1000 ppm by agar dilution method; conditions: Agroathelia rolfsii; read-out: GI
Pythium [4] = experiment: Growth inhibition of Pythium sp. at 100 ppm by agar dilution method; conditions: read-out: GI
Pythium [5] = experiment: Growth inhibition of Pythium sp. at 10 ppm by agar dilution method; conditions: read-out: GI
Athelia rolfsii [6] = experiment: Growth inhibition of Athelia rolfsii at 50 ppm by agar dilution method; conditions: Agroathelia rolfsii; read-out: GI
Pythium [7] = experiment: Growth inhibition of Pythium sp. at 50 ppm by agar dilution method; conditions: read-out: GI
Athelia rolfsii [8] = experiment: Growth inhibition of Athelia rolfsii at 10 ppm by agar dilution method; conditions: Agroathelia rolfsii; read-out: GI

Row | Compound | inhibition of growth at 1000 ppm (Pythium [1]) | inhibition of growth at 100 ppm (Athelia rolfsii [2]) | inhibition of growth at 1000 ppm (Athelia rolfsii [3]) | inhibition of growth at 100 ppm (Pythium [4]) | inhibition of growth at 10 ppm (Pythium [5]) | inhibition of growth at 50 ppm (Athelia rolfsii [6]) | inhibition of growth at 50 ppm (Pythium [7]) | inhibition of growth at 10 ppm (Athelia rolfsii [8])
1 | CC(C)=CCCC(C)CCOP1(=S)OCc2ccccc2O1 (stereo not given) | 96% | 36.6% | 100% | 38.8% | – | – | – | –
2 | Cc1ccc(OP2(=S)OCc3cc(C(C)C)ccc3O2)c(C(C)C)c1 (stereo not given) | 85.9% | 62.5% | 71.3% | 26.8% | – | – | – | –
3 | CCCCCCCCCCCCCCCOP1(=S)OCc2ccccc2O1 (stereo not given) | 86% | 6% | 32.3% | 24.9% | – | – | – | –
4 | C=CCc1ccc(OP2(=S)OCc3ccccc3O2)c(OC)c1 (stereo not given) | 87.4% | 25.5% | 100% | 28.6% | – | – | – | –
5 | CCCCCCCCCCCOP1(=S)OCc2ccccc2O1 (stereo not given) | 100% | 25% | 88.1% | 0% | – | – | – | –
6 | CCc1ccc2c(c1)COP(=O)(Oc1ccccc1)O2 (stereo not given) | 98.7% | 100% | 100% | 89.1% | 38.5% | 57.6% | 78.6% | 26.6%
7 | CCCCCCCOP1(=S)OCc2ccccc2O1 (stereo not given) | 100% | 52.6% | 100% | 42.4% | – | – | – | –
8 | Cc1ccc(C(C)C)c(OP2(=S)OCc3ccccc3O2)c1 (stereo not given) | 100% | 27.7% | 99.8% | 45.2% | – | – | – | –
9 | C=CCc1ccc(OP2(=S)OCc3cc(C(C)C)ccc3O2)c(OC)c1 (stereo not given) | 83.9% | 18.8% | 71.2% | 22.9% | – | – | – | –
10 | CC(C)c1ccc2c(c1)COP(=S)(OCCc1ccccc1)O2 (stereo not given) | 100% | 30.6% | 100% | 74.6% | – | – | – | –
11 | CCc1ccc2c(c1)COP(=S)(Oc1cc(C)ccc1C(C)C)O2 (stereo not given) | 96.8% | 30.4% | 100% | 41.7% | – | – | – | –
12 | O=P1(Oc2ccccc2)OCc2ccccc2O1 (stereo not given) | 100% | 2.1% | 88.7% | 76% | – | – | – | –
13 | CCCCCCCCCCCCCOP1(=S)OCc2ccccc2O1 (stereo not given) | 100% | 3.1% | 100% | 6.3% | – | – | – | –
14 | CCc1ccc2c(c1)COP(=S)(OC)O2 (stereo not given) | 96% | 100% | 100% | 91.1% | 1.9% | 92.4% | 64.4% | 24.6%
15 | CCc1ccc2c(c1)COP(=S)(OCCc1ccccc1)O2 (stereo not given) | 100% | 57% | 100% | 95.4% | – | – | – | –
16 | COP1(=S)OCc2ccccc2O1 (stereo not given) [SALITHION] | 100% | 60.7% | 100% | 74.8% | – | – | – | –
17 | S=P1(OCCc2ccccc2)OCc2ccccc2O1 (stereo not given) | 100% | 81.6% | 100% | 70.1% | – | – | – | –
18 | Cc1ccc(OP2(=S)OCc3ccccc3O2)c(C(C)C)c1 (stereo not given) | 80.8% | 37.3% | 83.3% | 0% | – | – | – | –
19 | CCc1ccc2c(c1)COP(=S)(Oc1ccc(C)cc1C(C)C)O2 (stereo not given) | 100% | 88.6% | 100% | 49.5% | – | – | – | –
20 | Cc1ccc(C(C)C)c(OP2(=S)OCc3ccccc3O2)c1Cl (stereo not given) | 97.4% | 12.3% | 85.5% | 27.9% | – | – | – | –
21 | Cc1ccc(C(C)C)c(OP2(=S)OCc3cc(C(C)C)ccc3O2)c1 (stereo not given) | 85.9% | 61.9% | 84.6% | 33.8% | – | – | – | –
22 | COP1(=S)OCc2cc(C(C)C)ccc2O1 (stereo not given) | 82.6% | 96.9% | 100% | 71.1% | 0% | 92.5% | 50% | 62%
